Test results as given in US9221783B2, “Phenylalkyl sulfamate compound and muscle relaxant composition comprising the same” (BIO-PHARM SOLUTIONS CO., LTD., priority 2012, dated 2015).

Columns and labels:
Assay type in all cases: in vivo
male mice (ICR) [1] = assay: Muscle relaxation activity by residence time on a rotarod rotating at a fixed speed; details: intraperitoneal; for ED50: Mus musculus, ip, 15 rpm, max 10 min, ED50 vs vehicle only (100%), determined at 0.5 h (time of maximum effect)
Protocol: (§1) For testing, male mice (ICR) were purchased from ORIENT BIO INC. (Korea), divided into several groups with 6 mice in each group, and were adapted for 4-5 days. The mice having the weight ranging from 19 g to 26 g were employed for the test. The pharmacological effect of the test compounds on muscle relaxation was evaluated by Rotarod test, grip strength test, and muscular force (wire hang) test. All mice were adapted to the test environment at one hour before starting the tests. The pharmacological effects of all the test compounds were evaluated by administration through peritoneal cavity of the mice (10 ul/g, bw).
All the mice to be tested were preliminarily trained for 5 minutes on a rod rotating at the rate of 15 revolutions per a minute. The mice that could not remain on the rod without falling off therefrom for a minimum of 2 minutes were excluded from this testing. After the training, all the mice were allowed to rest for 45-60 minutes. Before the administration of the test compounds, the mice were subjected to a further training for one minute on the rod rotating under the same condition, where the mice falling off from the rod were excluded from this experimentation. […] In case a mouse stays on the rod until the test is finished, the time was recorded as 10 minutes. As test time for evaluation, a maximum of 10 minutes was applied. This experimentation was conducted according to the method described in the reference, ‘Yasuda et al. (2005) Antipyretic, analgesic and muscle relaxant activities of Pueraria isoflavonoids and their metabolites from Pueraria lobata Ohwi—a traditional Chinese drug. Biol. Pharm. Bull. 28: 1224-1228.
(§2) The obtained results are shown as mean±sem. The difference between the groups was statistically analyzed by ANOVA, and then, further examined by Dunnett's test or Bonferroni test. If p is less than 0.05, it was determined that the difference between the groups had statistical significance.
(§3) The results of muscle relaxation activity of the phenylalkyl sulfamate compounds measured in above Experimental Examples 1 to 43 are shown in following Table 2.

male mice (ICR) [2] = assay: Muscle relaxation activity by grip strength test (forelimbs); details: intraperitoneal; for ED50: Mus musculus, ip; for Grip strength, percentage compared to the vehicle only (100%): dose 200 (unit not given)
Protocol: as §1
The test was conducted before and after administration of the compounds to evaluate the effects thereof. […] The mouse was made to grip the rod with its forelimbs, and its tail was pulled, where the force at which the mouse detached from the rod was recorded. The instrument indicated the force in grams. All of the mice were given 3 opportunities for test, and the 3 highest values among the test opportunities were selected and the mean value was used as the test result. […] Psychopharmacol. 110: 92-96’.
as §2

male mice (ICR) [3] = assay: Muscle relaxation activity by wire hang (wire suspension) test; details: intraperitoneal; for ED50: Mus musculus, ip, ED50 vs vehicle only (100%); for Wire suspension, percentage compared to the vehicle only (100%): dose 100 (unit not given)
Protocol: as §1
This experimentation was conducted using a metal wire of 30 cm in length, which was suspended between two pillars at a height of about 40 cm from the bottom covered with a soft pad. […] Each mouse was made to grip the wire using two forelimbs, and the elapse time before the mouse fell off from the wire to the pad on the bottom was recorded in seconds. Each mouse was given 5 opportunities for this test at an interval of 2 minutes period. The highest 3 records among the test opportunities were selected and the mean value was used as the test result. This experimentation was conducted according to the method described in the reference, ‘Jacqueline N. Crawley (1999) Behavioral phenotyping of transgenic and knockout mice: experimental design and evaluation of general health, sensory functions, motor abilities, and specific behavioral tests. Brain Res. 835: 18-26’.
as §2, §3

[4] = ED50 = 50% of muscle relaxation activity compared to vehicle only (100%), determined at 0.5 h (time of maximum effect)
[5] = determined at 0.5 h (time of maximum effect)

CC1(C)O[C@H](c2ccccc2Cl)[C@@H](COS(N)(=O)=O)O1 [Example 1, ((4R,5R)-5-(2-chlorophenyl)-2,2-dimethyl-1,3-dioxolan-4-yl)methyl sulfamate]
ED50 (male mice (ICR) [1]): 108 mg/kg | ED50 (male mice (ICR) [2]; [4]): 212 mg/kg | ED50 (male mice (ICR) [3]; [5]): 96.7 mg/kg

CC1(C)O[C@@H](COS(N)(=O)=O)[C@H](c2ccccc2Cl)O1 [Example 2, ((4S,5S)-5-(2-chlorophenyl)-2,2-dimethyl-1,3-dioxolan-4-yl)methyl sulfamate]
ED50 (male mice (ICR) [1]): 73.6 mg/kg | ED50 (male mice (ICR) [2]; [4]): 211 mg/kg | ED50 (male mice (ICR) [3]; [5]): 81.4 mg/kg

CC1(C)OC(COS(N)(=O)=O)C(c2ccccc2Cl)O1 (centres unmarked) [Example 3, (5-(2-chlorophenyl)-2,2-dimethyl-1,3-dioxolan-4-yl)methyl sulfamate]
ED50 (male mice (ICR) [1]): 99.2 mg/kg | ED50 (male mice (ICR) [2]; ED50 vs vehicle only (100%), determined at 0.25 h (time of maximum effect)): 205 mg/kg | ED50 (male mice (ICR) [3]; determined at 1 h (time of maximum effect)): 116 mg/kg

CC1(C)OC(COS(N)(=O)=O)C(c2ccccc2Cl)O1 (centres unmarked) [Example 4, (5-(2-chlorophenyl)-2,2-dimethyl-1,3-dioxolan-4-yl)methyl sulfamate]
Fixed rotarod, percentage of residence time compared to the vehicle only (100%) (male mice (ICR) [1]; dose 100 (unit not given)): 100 (76.6%) | Grip strength, percentage compared to the vehicle only (100%) (male mice (ICR) [2]): 200 (56.5%) | Wire suspension, percentage compared to the vehicle only (100%) (male mice (ICR) [3]): 100 (41.3%)

CC1O[C@@H](COS(N)(=O)=O)[C@H](c2ccccc2Cl)O1 (stereo partly drawn) [Example 6, ((4S,5S)-5-(2-chlorophenyl)-2-methyl-1,3-dioxolan-4-yl)methyl sulfamate]
Fixed rotarod, percentage of residence time compared to the vehicle only (100%) (male mice (ICR) [1]; dose 100 (unit not given)): 100 (50.4%) | Grip strength, percentage compared to the vehicle only (100%) (male mice (ICR) [2]): 200 (44.8%) | Wire suspension, percentage compared to the vehicle only (100%) (male mice (ICR) [3]): 100 (70.0%)

CC1(C)O[C@H](c2ccccc2F)[C@@H](COS(N)(=O)=O)O1 [Example 15, ((4R,5R)-5-(2-fluorophenyl)-2,2-dimethyl-1,3-dioxolan-4-yl)methyl sulfamate]
Fixed rotarod, percentage of residence time compared to the vehicle only (100%) (male mice (ICR) [1]; dose 140 (unit not given)): 140(22.7%)

CC1(C)O[C@@H](COS(N)(=O)=O)[C@H](c2ccccc2F)O1 [Example 16, ((4S,5S)-5-(2-fluorophenyl)-2,2-dimethyl-1,3-dioxolan-4-yl)methyl sulfamate]
ED50 (male mice (ICR) [2]; [4]): 161 mg/kg | ED50 (male mice (ICR) [3]; [5]): 99.1 mg/kg

CC1(C)O[C@@H](COS(N)(=O)=O)[C@H](c2ccccc2I)O1 [Example 28, ((4S,5S)-5-(2-iodophenyl)-2,2-dimethyl-1,3-dioxolan-4-yl)methyl sulfamate]
ED50 (male mice (ICR) [1]): 102 mg/kg | ED50 (male mice (ICR) [2]; [4]): 261 mg/kg | Wire suspension, percentage compared to the vehicle only (100%) (male mice (ICR) [3]): 100(66.8%)

NS(=O)(=O)OCC[C@@H]1OC2(CCCC2)O[C@H]1c1ccccc1 [Example 134, 2-((2S,3S)-3-phenyl-1,4-dioxaspiro[4,4]nonan-2-yl)ethyl sulfamate]
Grip strength, percentage compared to the vehicle only (100%) (male mice (ICR) [2]): 200 (90.1%)

NS(=O)(=O)OCC[C@@H]1OC2(CCCCC2)O[C@H]1c1ccccc1 [Example 136, 2-((2S,3S)-3-phenyl-1,4-dioxaspiro[4,5]decan-2-yl)ethyl sulfamate]
Grip strength, percentage compared to the vehicle only (100%) (male mice (ICR) [2]): 200 (80.8%)

CC1(C)O[C@H](CCOS(N)(=O)=O)[C@@H](Cc2ccccc2Cl)O1 [Example 138, 2-((4R,5R)-5-(2-chlorobenzyl)-2,2-dimethyl-1,3-dioxolan-4-yl)ethyl sulfamate]
Grip strength, percentage compared to the vehicle only (100%) (male mice (ICR) [2]): 200 (70.1%)

CCC1(CC)O[C@H](CCOS(N)(=O)=O)[C@@H](Cc2ccccc2Cl)O1 [Example 140, 2-((4R,5R)-5-(2-chlorobenzyl)-2,2-diethyl-1,3-dioxolan-4-yl)ethyl sulfamate]
Grip strength, percentage compared to the vehicle only (100%) (male mice (ICR) [2]): 200 (73.4%)

NS(=O)(=O)OCC[C@H]1OC2(CCCC2)O[C@@H]1Cc1ccccc1Cl [Example 142, 2-((2R,3R)-3-(2-chlorobenzyl)-1,4-dioxaspiro[4,4]nonan-2-yl)ethyl sulfamate]
Grip strength, percentage compared to the vehicle only (100%) (male mice (ICR) [2]): 200 (66.8%)

NS(=O)(=O)OCC[C@H]1OC2(CCCCC2)O[C@@H]1Cc1ccccc1Cl [Example 144, 2-((2R,3R)-3-(2-chlorobenzyl)-1,4-dioxaspiro[4,5]decan-2-yl)ethyl sulfamate]
Grip strength, percentage compared to the vehicle only (100%) (male mice (ICR) [2]): 200 (62.0%)

CC1(C)O[C@H](COS(N)(=O)=O)[C@@H](Cc2ccccc2Cl)O1 [Example 146, ((4R,5R)-5-(2-chlorobenzyl)-2,2-dimethyl-1,3-dioxolan-4-yl)methyl sulfamate]
Grip strength, percentage compared to the vehicle only (100%) (male mice (ICR) [2]): 200 (79.2%)

CCC1(CC)O[C@H](COS(N)(=O)=O)[C@@H](Cc2ccccc2Cl)O1 [Example 148, ((4R,5R)-5-(2-chlorobenzyl)-2,2-diethyl-1,3-dioxolan-4-yl)methyl sulfamate]
Grip strength, percentage compared to the vehicle only (100%) (male mice (ICR) [2]): 200 (70.2%)

NS(=O)(=O)OC[C@H]1OC2(CCCC2)O[C@@H]1Cc1ccccc1Cl [Example 150, ((2R,3R)-3-(2-chlorobenzyl)-1,4-dioxaspiro[4,4]nonan-2-yl)methyl sulfamate]
Grip strength, percentage compared to the vehicle only (100%) (male mice (ICR) [2]): 200 (89.8%)

NS(=O)(=O)OC[C@H]1OC2(CCCCC2)O[C@@H]1Cc1ccccc1Cl [Example 152, ((2R,3R)-3-(2-chlorobenzyl)-1,4-dioxaspiro[4,5]decan-2-yl)methyl sulfamate]
Grip strength, percentage compared to the vehicle only (100%) (male mice (ICR) [2]): 200 (77.2%)

CC1(C)O[C@@H](CCOS(N)(=O)=O)[C@H](c2ccccc2Cl)O1 [Example 154, ((4S,5S)-5-(2-chlorophenyl)-2,2-dimethyl-1,3-dioxolan-4-yl)ethyl sulfamate]
Grip strength, percentage compared to the vehicle only (100%) (male mice (ICR) [2]): 200 (70.4%)

CCC1(CC)O[C@@H](CCOS(N)(=O)=O)[C@H](c2ccccc2Cl)O1 [Example 156, 2-((4S,5S)-5-(2-chlorophenyl)-2,2-diethyl-1,3-dioxolan-4-yl)ethyl sulfamate]
Grip strength, percentage compared to the vehicle only (100%) (male mice (ICR) [2]): 200 (73.2%)

NS(=O)(=O)OCC[C@@H]1OC2(CCCC2)O[C@H]1c1ccccc1Cl [Example 158, 2-((2S,3S)-3-(2-chlorophenyl)-1,4-dioxaspiro[4,4]nonan-2-yl)ethyl sulfamate]
Grip strength, percentage compared to the vehicle only (100%) (male mice (ICR) [2]): 200 (74.2%)

NS(=O)(=O)OCC[C@@H]1OC2(CCCCC2)O[C@H]1c1ccccc1Cl [Example 160, 2-((2S,3S)-3-(2-chlorophenyl)-1,4-dioxaspiro[4,5]decan-2-yl)ethyl sulfamate]
Grip strength, percentage compared to the vehicle only (100%) (male mice (ICR) [2]): 200 (86.8%)
